In ChEMBL document CHEMBL6109066, “Synthesis, cytotoxic evaluation, and molecular docking of novel zerumbone oxime esters and azazerumbone derivatives” (Bioorg Med Chem Lett, 2025):
In brackets after ≈: the same amount, converted by molar mass.

Legend:
Format in all cases: functional, cell-based
AGS = assay: Cytotoxicity against human AGS cells
A549 = assay: Cytotoxicity against human A549 cells
HL-60 = assay: Cytotoxicity against human HL-60 cells
HepG2 = assay: Cytotoxicity against human HepG2 cells

SMILES | IC50 (AGS) [µg/mL] | IC50 (A549) [µg/mL] | IC50 (HL-60) [µg/mL] | IC50 (HepG2) [µg/mL]
CC(=O)N1C(=O)/C=C/C(C)(C)C/C=C(\C)CC/C=C/1C | 9.02 (≈ 32.8 µM) | 44.1 (≈ 160 µM) | 4.5 (≈ 16.3 µM) | 32.9 (≈ 120 µM)
C/C1=C\CC(C)(C)/C=C/C(=N/OC(=O)c2ccc(Br)cc2)C(/C)=C/CC1 | 27.3 (≈ 65.6 µM) | 40.8 (≈ 97.9 µM) | 15.4 (≈ 36.9 µM) | 12.2 (≈ 29.4 µM)
C/C1=C\CC(C)(C)/C=C/C(=N/OC(=O)c2cccc(Cl)c2)C(/C)=C/CC1 | 38.3 (≈ 103 µM) | 52.9 (≈ 142 µM) | 10.6 (≈ 28.5 µM) | 14.3 (≈ 38.4 µM)
CC(=O)O/N=C1/C=C/C(C)(C)C/C=C(\C)CC/C=C/1C | 23.8 (≈ 86.3 µM) | 30.8 (≈ 112 µM) | 11 (≈ 39.9 µM) | 18.5 (≈ 67.3 µM)
C/C1=C\CC(C)(C)/C=C/C(=N/OC(=O)[C@H](NC(=O)OC(C)(C)C)C(C)(C)C)C(/C)=C/CC1 | 1.5 (≈ 3.36 µM) | 1.37 (≈ 3.07 µM) | 0.41 (≈ 0.918 µM) | 1.15 (≈ 2.57 µM)
COc1cc(C(=O)O/N=C2/C=C/C(C)(C)C/C=C(\C)CC/C=C/2C)ccc1OC(C)=O | 10 (≈ 23.5 µM) | 15.6 (≈ 36.8 µM) | 10.7 (≈ 25.2 µM) | 7.41 (≈ 17.4 µM)
Cc1c2ccncc2c(C)c2c1[nH]c1ccccc12 [ELLIPTECINE] | 0.4 (≈ 1.62 µM) | 0.39 (≈ 1.58 µM) | 0.35 (≈ 1.42 µM) | 0.33 (≈ 1.34 µM)
C#CCN[C@@H]1CC/C(C)=C/CC(C)(C)/C=C/C(=O)[C@@H]1C | 11.5 (≈ 42 µM) | 32.2 (≈ 118 µM) | 9.59 (≈ 35.1 µM) | 6.52 (≈ 23.8 µM)
C/C1=C\CC(C)(C)/C=C/C(=N/OC(=O)[C@H](NC(=O)OC(C)(C)C)C(C)C)C(/C)=C/CC1 | 3.21 (≈ 7.42 µM) | 2.01 (≈ 4.65 µM) | 3.88 (≈ 8.97 µM) | 1.59 (≈ 3.68 µM)
C/C1=C\CC(C)(C)/C=C/C(=O)[C@H](C)[C@H](Nc2ccc(Cl)cc2)CC1 | > 100 | > 100 | 53.7 (≈ 155 µM) | 56.2 (≈ 163 µM)
C\C1=C/CC/C(C=O)=C/CC(C)(C)/C=C/C1=N/O | 53.9 (≈ 218 µM) | 91.8 (≈ 371 µM) | 37.7 (≈ 152 µM) | 64.1 (≈ 259 µM)
C/C1=C\CC(C)(C)/C=C/C(=N/OC(=O)c2ccccc2O)C(/C)=C/CC1 | 9.04 (≈ 25.6 µM) | 12 (≈ 34 µM) | 3.99 (≈ 11.3 µM) | 4.2 (≈ 11.9 µM)
C/C1=C\CC(C)(C)/C=C/C(=N/OC(=O)c2ccc([N+](=O)[O-])cc2)C(/C)=C/CC1 | 6.66 (≈ 17.4 µM) | 9.28 (≈ 24.3 µM) | 9.88 (≈ 25.8 µM) | 4.61 (≈ 12.1 µM)
C/C1=C\CC(C)(C)/C=C/C(=N/OC(=O)CCl)C(/C)=C/CC1 | 44.6 (≈ 144 µM) | 46.1 (≈ 149 µM) | 9.03 (≈ 29.1 µM) | 37.5 (≈ 121 µM)
CC(=O)Oc1ccc(C(=O)O/N=C2/C=C/C(C)(C)C/C=C(\C)CC/C=C/2C)cc1 | 9.37 (≈ 23.7 µM) | 10.9 (≈ 27.5 µM) | 3.55 (≈ 8.98 µM) | 5.87 (≈ 14.8 µM)
C/C1=C\CC(C)(C)/C=C/C(=N/O)C(/C)=C/CC1 | > 100 | > 100 | 45.5 (≈ 195 µM) | > 100
C/C1=C\CC(C)(C)/C=C/C(=O)/C(C)=C/CC1 [ZERUMBONE] | 1.11 (≈ 5.08 µM) | 1.03 (≈ 4.72 µM) | 0.86 (≈ 3.94 µM) | 0.93 (≈ 4.26 µM)
COc1ccc(C(=O)O/N=C2/C=C/C(C)(C)C/C=C(\C)CC/C=C/2C)cc1 | 1.93 (≈ 5.25 µM) | 1.52 (≈ 4.14 µM) | 1.43 (≈ 3.89 µM) | 1.42 (≈ 3.86 µM)
C/C1=C\CC(C)(C)/C=C/C(=O)N/C(C)=C/CC1 | 39.6 (≈ 170 µM) | 56.9 (≈ 244 µM) | 9.84 (≈ 42.2 µM) | 27.4 (≈ 117 µM)
C/C1=C\CC(C)(C)/C=C/C(=N/OC(=O)c2cccc([N+](=O)[O-])c2)C(/C)=C/CC1 | 41.8 (≈ 109 µM) | 58.9 (≈ 154 µM) | 29.8 (≈ 77.8 µM) | 30.4 (≈ 79.5 µM)
C/C1=C\CC(C)(C)/C=C/C(=N/OC(=O)c2ccccc2)C(/C)=C/CC1 | 10.5 (≈ 31.3 µM) | 14.3 (≈ 42.3 µM) | 6.63 (≈ 19.6 µM) | 3.64 (≈ 10.8 µM)
